# According to patent publication US20240270720A1, “INDAZOLE YL BENZIMIDAZOLE DERIVATIVE OR PHARMACEUTICALLY ACCEPTABLE SALT THEREOF, AND USE THEREOF” (INDUSTRY-UNIVERSITY COOPERATION FOUNDATION HANYANG …, priority 2021, published 2024):
# Residue numbers refer to the chain shown, from its start. pIC50: −log10 of the molar value.
# Assays:
# FLT3 (D835Y) = molecular target: T1, FLT3 (D835Y) (Homo sapiens, UniProt P36888, D835Y); test: Kinase HotSpot radiometric kinase assay (Reaction Biology); details: read-out: FLT3 (D835Y) IC50; Table 1
# T1 sequence (P36888 27-993 D835Y): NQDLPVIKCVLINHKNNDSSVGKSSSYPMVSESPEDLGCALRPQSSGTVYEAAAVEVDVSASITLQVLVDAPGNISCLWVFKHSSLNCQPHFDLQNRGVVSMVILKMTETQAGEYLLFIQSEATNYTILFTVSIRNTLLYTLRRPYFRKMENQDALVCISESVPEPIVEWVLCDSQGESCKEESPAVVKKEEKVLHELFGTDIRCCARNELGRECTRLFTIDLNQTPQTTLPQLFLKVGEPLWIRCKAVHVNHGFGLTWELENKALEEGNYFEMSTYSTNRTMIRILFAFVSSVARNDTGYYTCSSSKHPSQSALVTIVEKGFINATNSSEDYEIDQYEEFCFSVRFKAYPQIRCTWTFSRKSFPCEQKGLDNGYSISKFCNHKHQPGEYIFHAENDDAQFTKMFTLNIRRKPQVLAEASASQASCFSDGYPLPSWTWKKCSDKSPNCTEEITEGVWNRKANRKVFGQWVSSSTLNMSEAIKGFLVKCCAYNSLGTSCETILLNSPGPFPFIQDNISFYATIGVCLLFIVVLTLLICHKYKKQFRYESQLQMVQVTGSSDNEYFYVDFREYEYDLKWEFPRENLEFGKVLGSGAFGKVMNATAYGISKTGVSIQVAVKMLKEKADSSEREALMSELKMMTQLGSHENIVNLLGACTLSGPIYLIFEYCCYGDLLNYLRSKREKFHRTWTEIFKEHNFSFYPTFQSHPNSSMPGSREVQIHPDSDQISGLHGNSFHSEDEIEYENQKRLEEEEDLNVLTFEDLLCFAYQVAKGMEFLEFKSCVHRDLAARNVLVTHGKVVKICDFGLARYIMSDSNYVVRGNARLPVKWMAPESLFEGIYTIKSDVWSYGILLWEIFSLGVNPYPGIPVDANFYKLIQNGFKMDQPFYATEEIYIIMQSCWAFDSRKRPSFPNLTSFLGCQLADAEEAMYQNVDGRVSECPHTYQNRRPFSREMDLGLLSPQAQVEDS
# Description: (§1) Reaction Biology Corp. Kinase HotSpot SM service (www.reactionbiology.com) was used to determine IC50 values for all compounds and kinase profiles. The analysis protocol was as follows: In a final reaction volume of 25 μL, a peptide substrate, [[sequence]], 5 μM, ATP 10 μM, and FLT3(h) (5 to 10 mU) were incubated with 25 mM Tris pH 7.5, 0.02 mM EGTA, 0.66 mg/mL myelin basic protein, 10 mM Mg acetate and [γ-33P-ATP] (a concentration of approximately 500 cpm/pmol was required for specific activity). The reaction was initiated by adding the Mg-ATP mixture. After incubation at room temperature for 40 minutes, the reaction was stopped by adding 5 μL of a 3% phosphoric acid solution. Thereafter, 10 μL of the reactant was spotted on a P30 filter mat and washed three times for 5 minutes in 75 mM phosphoric acid and once in methanol before drying and scintillation counting.
# FLT3 wild type = molecular target: T2, FLT3 wild type (Homo sapiens, UniProt P36888); test: Kinase HotSpot radiometric kinase assay (Reaction Biology); assay type: biochemical; details: Table 1; read-out: FLT3 IC50
# T2 construct: purchased Reaction Biology Corp. (Kinase HotSpot service)
# T2 sequence (P36888 27-993): T1 sequence (P36888 27-993 D835Y) with Y809D
# Description: as §1
smiles,measurement,setting,value
"O=C(Nc1ccc2[nH]c(-c3ccc4cn[nH]c4c3)nc2c1)c1cc(N2CCOCC2)cc(C(F)(F)F)c1 [Compound 8d, N-(2-(1H-indazol-6-yl)-1H-benzo[di]imidazol-5-yl)-3-morpholino-5-(trifluoromethyl)benzamide]",pIC50,FLT3 (D835Y),6.82
same,melting point,,195 to 196 °C
same,pIC50,FLT3 wild type,5.99
"O=C(Nc1ccc2[nH]c(-c3ccc4cn[nH]c4c3)nc2c1)c1ccc(N2CCOCC2)c(C(F)(F)F)c1 [Compound 8f, N-(2-(1H-indazol-6-yl)-1H-benzo[di]imidazol-5-yl)-4-morpholino-3-(trifluoromethyl)benzamide]",pIC50,FLT3 (D835Y),6.43
same,melting point,,202 to 204 °C
same,pIC50,FLT3 wild type,5.60
"Cc1cn(-c2cc(C(=O)Nc3ccc4[nH]c(-c5ccc6cn[nH]c6c5)nc4c3)cc(C(F)(F)F)c2)cn1 [Compound 8b, N-(2-(1H-indazol-6-yl)-1H-benzo[di]imidazol-5-yl)-3-(4-methyl-1H-imidazol-1-yl)-5-(trifluoromethyl)benzamide]",pIC50,FLT3 (D835Y),6.96
same,melting point,,239 to 241 °C
same,pIC50,FLT3 wild type,6.19
"CCN(CC)C1CCN(c2cc(C(=O)Nc3ccc4[nH]c(-c5ccc6cn[nH]c6c5)nc4c3)cc(C(F)(F)F)c2)C1 (stereo not drawn) [Compound 8o, N-(2-(1H-indazol-6-yl)-1H-benzo[di]imidazol-5-yl)-3-(3-(diethylamino)pyrrolidin-1-yl)-5-(trifluoromethyl)benzamide]",pIC50,FLT3 (D835Y),6.92
same,melting point,,221 to 223 °C
same,pIC50,FLT3 wild type,6.08
